What was measured:
[1] = system: C3H/HeN mice; experiment: Telogen Conversion Assay; type: in vivo; details: Experiment 8; for Results: number of days following initiation of treatment when hair growth appeared in 50% of the mice: topical once daily for 5 days, solvent polyethylene glycol 30 v/v %, ethanol 30 v/v %, transcutanol 40 v/v %, vehicle 28; for Induction of anagen (conclusion in words): transcutol, ethanol, polypropylene glycol vehicle
[2] = system: C3H/HeN mice; experiment: Telogen Conversion Assay; type: in vivo; details: for Results: number of days following initiation of treatment when hair growth appeared in 50% of the mice: topical once daily for 5 days, propylene glycol 30%/ethanol 70%
Source text: The Telogen Conversion Assay measures the potential of a compound (hereinafter referred to as the “test compound”) to convert mice in the resting stage of the hair growth cycle (“telogen”) to the active stage of the hair growth cycle (“anagen”). This assay takes advantage of the fact that the fur (i.e. hair) of 40-day-old C3H/HeN mice is in the telogen phase. This phase usually continues until about 75 days of age, at which point, anagen naturally occurs in these animals. In this assay, selected areas of 40-day-old mice (approximate) are shaved, contacted with a test agent, or a control, and the difference in the rate of hair growth is measured (i.e. induction of the anagen phase). The first sign of anagen is the darkening of skin color as melanocytes in the follicles start to synthesize melanin, in preparation for the production of pigmented hairs.
Female C3H/HeN mice, 7 weeks old (Charles River Laboratories, Raleigh, N.C.) were used for the study. Fur was clipped from the dorsal region of the mice prior to initiation of the study. Only mice with pink skin, a visual indication of the telogen phase, were selected for inclusion in the study.
Test compounds (from Table A) were dissolved in a vehicle consisting of propylene glycol (30%) and ethanol (70%). A test compound dissolved in vehicle, or a vehicle control (30/70 propylene glycol/ethanol, unless otherwise specified) was applied topically to the clipped dorsal region of the mice in each test group (7-10 mice) in a volume of 20 μl/cm^2. Treatments were applied once daily for 5 days.
The treatment area was observed and graded for signs of hair growth. The hair growth response was quantified by recording, for each animal, the day on which signs of hair growth first appeared over the treated area. The first sign of anagen was the darkening of skin color as melanocytes in the follicles started to synthesize melanin. The response time was measured as the number of days between initiation of treatment and when hair growth was present in 50% of the mice in a given group.
The results are reported as the number of days following initiation of treatment when hair growth appeared in 50% of the mice in a given group.

[3] = Experiment 2, 0.3 w/v %, vehicle 25
[4] = Experiment 2, 1.0 w/v %, vehicle 25
[5] = Experiment 3, 0.1 w/v %, terminated early
[6] = Experiment 3, 0.3 w/v %, terminated early
[7] = Experiment 3, 1.0 w/v %, terminated early
[8] = Experiment 5, 0.03 w/v %, vehicle >35
[9] = Experiment 5, 0.1 w/v %, vehicle >35
[10] = Experiment 5, 0.3 w/v %, vehicle >35
[11] = Experiment 6, 0.003 w/v %, vehicle >35
[12] = Experiment 6, 0.03 w/v %, vehicle >35
[13] = Experiment 6, 0.3 w/v %, vehicle >35
[14] = Experiment 6, terminated early, up to day 35
[15] = Experiment 7, 0.003 w/v %, vehicle 29
[16] = Experiment 7, 0.03 w/v %, vehicle 29
[17] = Experiment 7, 0.3 w/v %, vehicle 29
[18] = Experiment 7, proceeded to completion
[19] = Experiment 15, 0.3 w/v %, vehicle >30
[20] = Experiment 15, 1.0 w/v %, vehicle >30
[21] = Experiment 15, terminated early

## Cn1nc(O[C@@H]2c3cc(S(=O)(=O)c4cccc(O)c4)ccc3OC(C)(C)[C@@]2(C)O)ccc1=O [Compound #1, (3S,4R)-3,4-dihydro-4-(2,3-dihydro-2-methyl-3-oxopyridazin-6-yl)oxy-3-hydroxy-6-(3-hydroxyphenyl)sulphonyl-2,2,3-trimethyl-2H-benzo[b]pyran]
[1]; 0.3 w/v %
  Results: number of days following initiation of treatment when hair growth appeared in 50% of the mice: 21 days
[1]; 1.0 w/v %
  Results: number of days following initiation of treatment when hair growth appeared in 50% of the mice: 21 days
[1]
  Induction of anagen (conclusion in words): exhibited activity at all doses tested in this vehicle
[2]; 15 experiments, compared with the other potassium channel openers of Table A
  Relative efficacy in the telogen conversion assay (summary): showed the highest relative efficacy in the model
[2]; Experiment 1, 1.0 w/v %, terminated early
  Results: number of days following initiation of treatment when hair growth appeared in 50% of the mice: >35 days
[2]; Experiment 2
  Induction of anagen (conclusion in words): exhibited signs of anagen sooner than those receiving Compound #6
[2]; [3]
  Results: number of days following initiation of treatment when hair growth appeared in 50% of the mice: 11 days
[2]; [4]
  Results: number of days following initiation of treatment when hair growth appeared in 50% of the mice: 11 days
[2]; [5]
  Results: number of days following initiation of treatment when hair growth appeared in 50% of the mice: >35 days
[2]; [6]
  Results: number of days following initiation of treatment when hair growth appeared in 50% of the mice: >35 days
[2]; [7]
  Results: number of days following initiation of treatment when hair growth appeared in 50% of the mice: >35 days
[2]; Experiment 4, 0.3 w/v %, vehicle >33
  Results: number of days following initiation of treatment when hair growth appeared in 50% of the mice: 26 days
[2]; Experiment 4, 1.0 w/v %, vehicle >33
  Results: number of days following initiation of treatment when hair growth appeared in 50% of the mice: 26 days
[2]; Experiment 4, terminated early
  Induction of anagen (conclusion in words): induced anagen at each of the test concentrations
[2]; [8]
  Results: number of days following initiation of treatment when hair growth appeared in 50% of the mice: >35 days
[2]; [9]
  Results: number of days following initiation of treatment when hair growth appeared in 50% of the mice: >35 days
[2]; [10]
  Results: number of days following initiation of treatment when hair growth appeared in 50% of the mice: >35 days
[2]; [11]
  Results: number of days following initiation of treatment when hair growth appeared in 50% of the mice: >35 days
[2]; [12]
  Results: number of days following initiation of treatment when hair growth appeared in 50% of the mice: >35 days
[2]; [13]
  Results: number of days following initiation of treatment when hair growth appeared in 50% of the mice: 28 days
[2]; [14]
  Induction of anagen (conclusion in words): induced anagen despite the early termination of the experiment
[2]; [15]
  Results: number of days following initiation of treatment when hair growth appeared in 50% of the mice: 26 days
[2]; [16]
  Results: number of days following initiation of treatment when hair growth appeared in 50% of the mice: 24 days
[2]; [17]
  Results: number of days following initiation of treatment when hair growth appeared in 50% of the mice: 19 days
[2]; [18]
  Induction of anagen (conclusion in words): induced anagen at all of the concentrations tested
[2]; Experiment 8, 1.0 w/v %, vehicle >35
  Results: number of days following initiation of treatment when hair growth appeared in 50% of the mice: 18 days
[2]; Experiment 9, 0.03 w/v %, terminated early
  Results: number of days following initiation of treatment when hair growth appeared in 50% of the mice: >33 days
[2]; Experiment 9, 0.3 w/v %, terminated early
  Results: number of days following initiation of treatment when hair growth appeared in 50% of the mice: >33 days
[2]; Experiment 9, 1.0 w/v %, terminated early
  Results: number of days following initiation of treatment when hair growth appeared in 50% of the mice: >33 days
[2]; Experiment 10, 0.1 w/v %, terminated early
  Results: number of days following initiation of treatment when hair growth appeared in 50% of the mice: >34 days
[2]; Experiment 10, 0.3 w/v %, terminated early
  Results: number of days following initiation of treatment when hair growth appeared in 50% of the mice: >34 days
[2]; Experiment 11
  Induction of anagen (conclusion in words): induced anagen
[2]; Experiment 11, 0.3 w/v %, vehicle 56
  Results: number of days following initiation of treatment when hair growth appeared in 50% of the mice: 25 days
[2]; Experiment 12
  Induction of anagen (conclusion in words): did not induce anagen
[2]; Experiment 12, 1.0 w/v %, vehicle 37
  Results: number of days following initiation of treatment when hair growth appeared in 50% of the mice: 39 days
[2]; Experiment 13
  Induction of anagen (conclusion in words): induced anagen
[2]; Experiment 13, 1.0 w/v %, vehicle 28
  Results: number of days following initiation of treatment when hair growth appeared in 50% of the mice: 14 days
[2]; Experiment 14
  Induction of anagen (conclusion in words): induced anagen
[2]; Experiment 14, 1.0 w/v %, vehicle 29
  Results: number of days following initiation of treatment when hair growth appeared in 50% of the mice: 25 days
[2]; [19]
  Results: number of days following initiation of treatment when hair growth appeared in 50% of the mice: 16 days
[2]; [20]
  Results: number of days following initiation of treatment when hair growth appeared in 50% of the mice: 23 days
[2]; [21]
  Induction of anagen (conclusion in words): induced anagen at both of the concentrations tested

## CCOc1c(N[C@@H]2c3cc(S(=O)(=O)c4cccc(O)c4)ccc3OC(C)(C)[C@@]2(C)O)c(=O)c1=O [Compound #3]
[1]; 0.3 w/v %
  Results: number of days following initiation of treatment when hair growth appeared in 50% of the mice: >35 days
[1]; 1.0 w/v %
  Results: number of days following initiation of treatment when hair growth appeared in 50% of the mice: >35 days
[1]
  Induction of anagen (conclusion in words): inactive

## CCOC(=O)CCCn1nnnc1-c1ccc2c(c1)[C@H](Oc1ccc(O)nn1)[C@@](C)(O)C(C)(C)O2 [Compound #2]
[2]; [5]
  Results: number of days following initiation of treatment when hair growth appeared in 50% of the mice: >35 days
[2]; [6]
  Results: number of days following initiation of treatment when hair growth appeared in 50% of the mice: >35 days
[2]; [7]
  Results: number of days following initiation of treatment when hair growth appeared in 50% of the mice: >35 days
[2]; Experiment 3, 2.5 w/v %, terminated early
  Results: number of days following initiation of treatment when hair growth appeared in 50% of the mice: >35 days

## Cn1nc(OC2c3cc(S(=O)(=O)c4ccc(O)cc4)ccc3OC(C)(C)C2(C)O)c2ccccc2c1=O (stereo not shown) [Compound #4]
[1]; 0.3 w/v %
  Results: number of days following initiation of treatment when hair growth appeared in 50% of the mice: >35 days
[1]; 1.0 w/v %
  Results: number of days following initiation of treatment when hair growth appeared in 50% of the mice: >35 days
[1]
  Induction of anagen (conclusion in words): inactive

## Cn1nc(O[C@@H]2c3cc(S(=O)(=O)c4ccc(O)cc4)ccc3OC(C)(C)[C@@]2(C)O)ccc1=O [Compound #6]
[2]; [3]
  Results: number of days following initiation of treatment when hair growth appeared in 50% of the mice: 18 days
[2]; [4]
  Results: number of days following initiation of treatment when hair growth appeared in 50% of the mice: 30 days
[2]; [8]
  Results: number of days following initiation of treatment when hair growth appeared in 50% of the mice: >35 days
[2]; [9]
  Results: number of days following initiation of treatment when hair growth appeared in 50% of the mice: >35 days
[2]; [10]
  Results: number of days following initiation of treatment when hair growth appeared in 50% of the mice: 23 days
[2]; Experiment 5, terminated early
  Induction of anagen (conclusion in words): induced anagen at the highest concentration tested (0.3%)
[2]; [11]
  Results: number of days following initiation of treatment when hair growth appeared in 50% of the mice: >35 days
[2]; [12]
  Results: number of days following initiation of treatment when hair growth appeared in 50% of the mice: >35 days
[2]; [13]
  Results: number of days following initiation of treatment when hair growth appeared in 50% of the mice: >35 days
[2]; [14]
  Induction of anagen (conclusion in words): no effect was seen
[2]; [15]
  Results: number of days following initiation of treatment when hair growth appeared in 50% of the mice: 31 days
[2]; [16]
  Results: number of days following initiation of treatment when hair growth appeared in 50% of the mice: >33 days
[2]; [17]
  Results: number of days following initiation of treatment when hair growth appeared in 50% of the mice: >33 days
[2]; [18]
  Induction of anagen (conclusion in words): did not induce anagen prior to the control group
[2]; Experiment 15, 0.03 w/v %, vehicle >30
  Results: number of days following initiation of treatment when hair growth appeared in 50% of the mice: >30 days
[2]; [19]
  Results: number of days following initiation of treatment when hair growth appeared in 50% of the mice: 14 days
[2]; [20]
  Results: number of days following initiation of treatment when hair growth appeared in 50% of the mice: >30 days
[2]; [21]
  Induction of anagen (conclusion in words): induced anagen when applied at a concentration of 0.3 w/v %

## CCOC(=O)CCCn1nnnc1-c1ccc2c(c1)[C@@H](Oc1ccnc(O)c1)[C@](C)(O)C(C)(C)O2 [Compound #5]
[1]; 0.3 w/v %
  Results: number of days following initiation of treatment when hair growth appeared in 50% of the mice: >35 days
[1]; 1.0 w/v %
  Results: number of days following initiation of treatment when hair growth appeared in 50% of the mice: >35 days
[1]
  Induction of anagen (conclusion in words): inactive
